Test [1] deals with D(1A) dopamine receptor (Homo sapiens, UniProt P21728). In kind it is functional, cell-based.
Test [2] addresses T1, Peroxisome proliferator-activated receptor gamma (Homo sapiens, UniProt P37231).
T1 sequence (P37231 whole entry): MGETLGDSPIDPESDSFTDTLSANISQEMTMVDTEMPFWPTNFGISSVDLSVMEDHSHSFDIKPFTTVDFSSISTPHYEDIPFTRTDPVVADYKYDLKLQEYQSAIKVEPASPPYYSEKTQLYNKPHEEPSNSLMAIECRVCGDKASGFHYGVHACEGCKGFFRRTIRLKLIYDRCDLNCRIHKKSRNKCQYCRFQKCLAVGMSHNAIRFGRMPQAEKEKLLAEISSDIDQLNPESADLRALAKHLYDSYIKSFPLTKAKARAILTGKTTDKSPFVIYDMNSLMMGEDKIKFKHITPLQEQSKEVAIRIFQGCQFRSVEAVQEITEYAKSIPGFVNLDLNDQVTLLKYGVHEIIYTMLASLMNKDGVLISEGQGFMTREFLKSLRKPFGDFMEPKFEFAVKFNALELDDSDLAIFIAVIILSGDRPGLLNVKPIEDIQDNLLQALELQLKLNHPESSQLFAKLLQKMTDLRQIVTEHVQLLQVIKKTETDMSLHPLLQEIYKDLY
It counts as functional.

For test [3], the target named is T2, Thromboxane A2 receptor (Homo sapiens, UniProt P21731).
T2 sequence (P21731 whole entry): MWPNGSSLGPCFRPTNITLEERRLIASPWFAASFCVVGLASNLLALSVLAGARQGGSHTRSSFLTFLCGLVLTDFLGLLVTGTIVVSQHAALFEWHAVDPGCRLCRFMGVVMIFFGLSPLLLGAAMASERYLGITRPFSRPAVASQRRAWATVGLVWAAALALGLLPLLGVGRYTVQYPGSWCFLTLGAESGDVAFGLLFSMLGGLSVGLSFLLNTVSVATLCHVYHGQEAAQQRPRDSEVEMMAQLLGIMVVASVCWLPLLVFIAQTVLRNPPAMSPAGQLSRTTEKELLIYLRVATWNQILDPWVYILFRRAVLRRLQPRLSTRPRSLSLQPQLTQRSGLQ
It counts as functional, cell-based.

Test [4] deals with T3, Glucocorticoid receptor (Homo sapiens, UniProt P04150).
T3 sequence (P04150 whole entry): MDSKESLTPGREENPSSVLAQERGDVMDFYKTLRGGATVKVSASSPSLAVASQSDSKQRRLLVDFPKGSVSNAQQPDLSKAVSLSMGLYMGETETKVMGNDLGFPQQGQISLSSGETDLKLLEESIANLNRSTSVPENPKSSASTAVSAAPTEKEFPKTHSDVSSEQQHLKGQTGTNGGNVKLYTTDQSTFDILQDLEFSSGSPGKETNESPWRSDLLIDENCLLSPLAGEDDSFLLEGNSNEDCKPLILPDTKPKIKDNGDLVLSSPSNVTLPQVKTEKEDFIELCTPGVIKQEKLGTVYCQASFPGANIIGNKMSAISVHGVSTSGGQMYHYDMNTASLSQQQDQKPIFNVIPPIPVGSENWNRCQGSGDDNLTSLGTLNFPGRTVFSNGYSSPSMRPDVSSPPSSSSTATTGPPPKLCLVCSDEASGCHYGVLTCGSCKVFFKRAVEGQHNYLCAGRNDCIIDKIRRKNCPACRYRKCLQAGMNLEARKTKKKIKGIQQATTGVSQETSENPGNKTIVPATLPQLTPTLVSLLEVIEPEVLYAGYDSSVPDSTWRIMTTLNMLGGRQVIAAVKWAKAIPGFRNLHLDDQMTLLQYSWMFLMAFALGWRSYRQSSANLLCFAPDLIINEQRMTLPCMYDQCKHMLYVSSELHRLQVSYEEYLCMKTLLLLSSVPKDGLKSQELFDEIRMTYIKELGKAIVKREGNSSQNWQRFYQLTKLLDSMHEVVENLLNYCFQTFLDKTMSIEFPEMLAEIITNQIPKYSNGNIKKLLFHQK
It counts as functional.

The target of test [5] is T3, Glucocorticoid receptor. In kind it is functional. This is another data set of the same source.
Test [6] deals with Sodium channel protein type 5 subunit alpha (Homo sapiens, UniProt Q14524). It counts as functional, cell-based.
Sequence of Sodium channel protein type 5 subunit alpha (Q14524 whole entry): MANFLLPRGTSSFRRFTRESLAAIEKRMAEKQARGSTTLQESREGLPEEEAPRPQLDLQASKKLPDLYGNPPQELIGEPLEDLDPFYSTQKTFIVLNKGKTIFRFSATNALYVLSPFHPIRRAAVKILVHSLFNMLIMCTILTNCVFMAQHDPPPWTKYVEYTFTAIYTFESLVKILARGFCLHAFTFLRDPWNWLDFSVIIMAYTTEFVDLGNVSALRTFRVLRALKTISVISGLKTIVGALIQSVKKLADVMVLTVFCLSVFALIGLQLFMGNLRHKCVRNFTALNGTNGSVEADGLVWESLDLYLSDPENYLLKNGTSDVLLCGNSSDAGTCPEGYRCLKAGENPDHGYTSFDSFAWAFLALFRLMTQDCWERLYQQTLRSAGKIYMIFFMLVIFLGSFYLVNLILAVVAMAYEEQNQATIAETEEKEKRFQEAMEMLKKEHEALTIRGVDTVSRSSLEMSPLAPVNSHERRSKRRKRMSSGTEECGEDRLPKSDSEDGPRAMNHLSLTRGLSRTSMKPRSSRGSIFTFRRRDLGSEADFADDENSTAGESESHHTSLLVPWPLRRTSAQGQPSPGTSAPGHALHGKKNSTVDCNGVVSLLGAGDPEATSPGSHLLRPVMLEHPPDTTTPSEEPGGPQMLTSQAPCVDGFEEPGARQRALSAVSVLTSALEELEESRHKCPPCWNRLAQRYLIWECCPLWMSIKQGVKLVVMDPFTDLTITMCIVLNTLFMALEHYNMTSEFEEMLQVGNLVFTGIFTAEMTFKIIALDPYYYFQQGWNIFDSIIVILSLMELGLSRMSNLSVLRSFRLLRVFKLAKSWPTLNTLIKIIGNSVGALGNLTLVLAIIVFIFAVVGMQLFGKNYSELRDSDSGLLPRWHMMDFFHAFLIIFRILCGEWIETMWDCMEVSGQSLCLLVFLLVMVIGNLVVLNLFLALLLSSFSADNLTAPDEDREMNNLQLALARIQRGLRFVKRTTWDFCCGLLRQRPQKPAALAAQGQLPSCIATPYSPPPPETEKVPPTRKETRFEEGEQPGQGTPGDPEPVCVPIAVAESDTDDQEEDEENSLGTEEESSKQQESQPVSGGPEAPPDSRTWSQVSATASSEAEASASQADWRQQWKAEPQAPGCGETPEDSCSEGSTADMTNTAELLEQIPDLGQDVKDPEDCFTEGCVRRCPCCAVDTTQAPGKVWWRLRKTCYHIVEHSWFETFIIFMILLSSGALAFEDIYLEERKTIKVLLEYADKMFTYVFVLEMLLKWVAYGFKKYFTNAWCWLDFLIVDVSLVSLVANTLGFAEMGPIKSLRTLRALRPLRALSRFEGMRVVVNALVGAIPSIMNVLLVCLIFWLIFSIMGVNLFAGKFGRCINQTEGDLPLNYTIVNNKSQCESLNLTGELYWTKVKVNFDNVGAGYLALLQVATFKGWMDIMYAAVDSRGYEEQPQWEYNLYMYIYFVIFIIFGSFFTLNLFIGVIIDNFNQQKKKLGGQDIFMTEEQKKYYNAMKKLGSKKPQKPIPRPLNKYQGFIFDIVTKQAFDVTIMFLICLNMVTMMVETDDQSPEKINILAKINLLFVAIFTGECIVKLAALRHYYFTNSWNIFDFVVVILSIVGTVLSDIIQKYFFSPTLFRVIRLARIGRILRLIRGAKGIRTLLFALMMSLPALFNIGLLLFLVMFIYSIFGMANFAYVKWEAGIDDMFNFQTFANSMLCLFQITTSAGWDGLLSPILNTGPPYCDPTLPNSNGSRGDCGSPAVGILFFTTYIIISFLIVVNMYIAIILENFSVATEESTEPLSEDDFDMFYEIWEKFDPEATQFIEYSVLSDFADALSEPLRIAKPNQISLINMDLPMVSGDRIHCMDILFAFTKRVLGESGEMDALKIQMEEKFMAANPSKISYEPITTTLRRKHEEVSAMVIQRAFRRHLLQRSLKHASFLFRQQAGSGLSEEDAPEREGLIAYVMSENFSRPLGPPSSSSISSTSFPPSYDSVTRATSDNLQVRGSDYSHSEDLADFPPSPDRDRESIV
For test [7], the target named is Synaptic vesicular amine transporter (Rattus norvegicus, UniProt Q01827). It counts as functional.
Sequence of Synaptic vesicular amine transporter (Q01827 whole entry): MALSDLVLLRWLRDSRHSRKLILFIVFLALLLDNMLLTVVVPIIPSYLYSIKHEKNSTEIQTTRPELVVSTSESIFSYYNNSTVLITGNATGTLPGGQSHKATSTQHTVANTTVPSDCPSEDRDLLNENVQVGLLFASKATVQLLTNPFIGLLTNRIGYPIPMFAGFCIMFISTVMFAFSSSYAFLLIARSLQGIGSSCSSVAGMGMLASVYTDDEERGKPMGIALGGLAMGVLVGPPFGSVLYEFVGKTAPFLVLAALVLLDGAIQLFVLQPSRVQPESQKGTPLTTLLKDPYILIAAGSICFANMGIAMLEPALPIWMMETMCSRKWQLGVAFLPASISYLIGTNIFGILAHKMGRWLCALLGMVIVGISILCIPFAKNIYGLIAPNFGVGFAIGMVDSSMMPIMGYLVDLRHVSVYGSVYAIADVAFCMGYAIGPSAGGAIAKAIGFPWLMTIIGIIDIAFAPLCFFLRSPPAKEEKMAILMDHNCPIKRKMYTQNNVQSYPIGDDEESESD
Note: assay procedure not described here.

Sequence of D(1A) dopamine receptor (P21728 whole entry): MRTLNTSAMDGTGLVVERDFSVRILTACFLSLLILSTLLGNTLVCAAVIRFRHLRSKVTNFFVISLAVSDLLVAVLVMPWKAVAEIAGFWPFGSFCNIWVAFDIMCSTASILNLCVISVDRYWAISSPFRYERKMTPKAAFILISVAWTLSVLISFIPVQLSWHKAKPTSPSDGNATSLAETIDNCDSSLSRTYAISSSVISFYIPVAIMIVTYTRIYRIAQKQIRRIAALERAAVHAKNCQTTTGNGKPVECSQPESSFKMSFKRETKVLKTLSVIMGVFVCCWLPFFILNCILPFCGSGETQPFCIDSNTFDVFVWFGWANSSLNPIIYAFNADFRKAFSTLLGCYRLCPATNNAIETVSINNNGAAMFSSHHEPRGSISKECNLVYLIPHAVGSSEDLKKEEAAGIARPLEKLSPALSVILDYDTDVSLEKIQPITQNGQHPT

For `Cc1nnc(SCC2=C(C(=O)O)N3C(=O)[C@@H](NC(=O)Cn4cnnn4)[C@H]3SC2)s1` [CEFAZOLIN], the AC50 in test [1], in test [2] and in test [3] was above 300 µM in each case.

Take `Clc1ccc(Cn2c(CN3CCCC3)nc3ccccc32)cc1` [CLEMIZOLE]: the half-maximal activity concentration (AC50) in test [1] was above 30 µM; in test [4], above 30 µM; in test [5], above 30 µM; in test [2] it was above 30 µM; in test [3] it was above 10 µM.

`S=P(N1CC1)(N1CC1)N1CC1` [THIOTEPA]: the AC50 in test [1], in test [4], in test [5], in test [2] and in test [3] was above 30 µM in each case.

`CC(C)(O/N=C(\C(=O)N[C@@H]1C(=O)N2C(C(=O)[O-])=C(C[n+]3ccccc3)CS[C@H]12)c1csc(N)n1)C(=O)O` [CEFTAZIDIME]: the concentration at half-maximal activity (AC50) in test [1], in test [4], in test [5] and in test [3] was above 300 µM each time.

As for `CCOc1cc([C@@H](CS(C)(=O)=O)N2C(=O)c3cccc(NC(C)=O)c3C2=O)ccc1OC`, the AC50 in test [1] was above 30 µM; in test [4], above 30 µM; in test [5], above 30 µM; in test [2] it was above 30 µM; in test [6] it was above 50 µM; in test [7], above 30 µM. The compound further had an AC50 in test [3] above 30 µM.

Take `Cc1onc(-c2c(F)cccc2Cl)c1C(=O)N[C@@H]1C(=O)N2[C@@H]1SC(C)(C)[C@@H]2C(=O)O` [FLOXACILLIN]: the AC50 in test [1], in test [4], in test [5], in test [2] and in test [3] was above 30 µM each time.
